Experimental data taken from ChEMBL document CHEMBL1201862, “PubChem BioAssay data set” (2004).
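Each compound was tested at five concentrations against cells in 96-well plates for 48 hours. GI50: concentration for 50% inhibition of growth.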 Activity calls are given as the source filed them. No stated cut-off is given here; in the data, active = GI50 up to about 1.1 µM and inactive = higher.

How the values were obtained:
Experiment in all cases: DTP human tumour cell line panel, 48 h
HOP-92 = system: HOP-92
TK-10 = system: TK-10
ACHN = system: ACHN
COLO 205 = system: COLO 205
M14 = system: M14
U-251 = system: U-251
NCI-H522 = system: NCI-H522
NCI-H460 = system: NCI-H460
NCI-H23 = system: NCI-H23
SR = system: SR
IGROV-1 = system: IGROV-1
SF-295 = system: SF-295
SNB-19 = system: SNB-19
SN12C = system: SN12C
HCT-15 = system: HCT-15
NCI-H226 = system: NCI-H226
A498 = system: A498
OVCAR-8 = system: OVCAR-8
MCF7 = system: MCF7
UACC-62 = system: UACC-62

| SMILES | GI50 (HOP-92) | GI50 (TK-10) | GI50 (ACHN) | GI50 (COLO 205) | GI50 (M14) | GI50 (U-251) | GI50 (NCI-H522) | GI50 (NCI-H460) | GI50 (NCI-H23) | GI50 (SR) | GI50 (IGROV-1) | GI50 (SF-295) | GI50 (SNB-19) | GI50 (SN12C) | GI50 (HCT-15) [µM] | GI50 (NCI-H226) | GI50 (A498) | GI50 (OVCAR-8) | GI50 (MCF7) | GI50 (UACC-62) |
| --- | --- | --- | --- | --- | --- | --- | --- | --- | --- | --- | --- | --- | --- | --- | --- | --- | --- | --- | --- | --- |
| COc1cc2c(cc1OC)[C@H]1C(=O)c3cc4c(cc3[C@H]1N(C)C2=O)OCO4 | 22.2 µM (inactive) | > 100 µM (inactive) | 0.682 µM (active) | 6.14 µM (inactive) | 2.92 µM (inactive) | 1.03 µM (active) | 1.06 µM (active) | 0.955 µM (active) | 5.2 µM (inactive) | 0.557 µM (active) | 11.2 µM (inactive) | 2.35 µM (inactive) | 6.35 µM (inactive) | 2.83 µM (inactive) | 14.7 | 1.81 µM (inactive) | 8.43 µM (inactive) | 30.4 µM (inactive) | 2.4 µM (inactive) | 0.879 µM (active) |
| O=C1OC(C2(O)OC(=O)c3ccccc32)c2ccccc21 (stereo not given) | > 100 µM (inactive) | > 100 µM (inactive) | > 100 µM (inactive) | > 100 µM (inactive) | > 100 µM (inactive) | > 100 µM (inactive) | > 100 µM (inactive) | > 100 µM (inactive) | > 100 µM (inactive) | > 100 µM (inactive) | > 100 µM (inactive) | > 100 µM (inactive) | > 100 µM (inactive) | > 100 µM (inactive) | > 100 | > 100 µM (inactive) | > 100 µM (inactive) | > 100 µM (inactive) | > 100 µM (inactive) | > 100 µM (inactive) |
| O=C(Nc1cnc(O)nc1O)Oc1ccccc1 | > 100 µM (inactive) | > 100 µM (inactive) | > 100 µM (inactive) | > 100 µM (inactive) | > 100 µM (inactive) | > 100 µM (inactive) | > 100 µM (inactive) | > 100 µM (inactive) | > 100 µM (inactive) | > 100 µM (inactive) | > 100 µM (inactive) | > 100 µM (inactive) | > 100 µM (inactive) | > 100 µM (inactive) | > 100 | > 100 µM (inactive) | > 100 µM (inactive) | > 100 µM (inactive) | > 100 µM (inactive) | > 100 µM (inactive) |
| Cc1cc2c3ccccc3n(C)c2c2c1C(=O)C=CC2=O | 12.1 µM (inactive) | 16.5 µM (inactive) | 20.9 µM (inactive) | 17.9 µM (inactive) | 17.8 µM (inactive) | 17.3 µM (inactive) | 16.1 µM (inactive) | 17.1 µM (inactive) | 12.4 µM (inactive) | 4.68 µM (inactive) | 16.8 µM (inactive) | 27.7 µM (inactive) | 28.5 µM (inactive) | 18.1 µM (inactive) | 9.33 | 21.2 µM (inactive) | 17.8 µM (inactive) | 24.8 µM (inactive) | 4.3 µM (inactive) | 16.3 µM (inactive) |
| CC1OC(O[C@H]2CC[C@]3(C=O)[C@H]4CC[C@]5(C)[C@H](C6=CC(=O)OC6)CC[C@]5(O)[C@@H]4C=C[C@]3(O)C2)CC(O)C1O (stereo not given in full) | 0.577 µM (active) | 0.29 µM (active) | 0.106 µM (active) | 0.675 µM (active) | 0.386 µM (active) | 0.355 µM (active) | 0.0615 µM (active) | 0.118 µM (active) | 0.143 µM (active) | 0.0933 µM (active) | 0.157 µM (active) | 0.13 µM (active) | 0.942 µM (active) | 0.117 µM (active) | 0.289 | 0.514 µM (active) | 0.176 µM (active) | 0.346 µM (active) | 0.272 µM (active) | 0.434 µM (active) |
| COc1ccc(C[C@@H](C(=O)O[C@H](C)[C@H](NC(=O)[C@@H](CC(C)C)N(C)C(=O)C2CCCN2C(=O)[C@H](C)O)C(=O)N2CCCCNC(=O)[C@@H](C)C(=O)[C@H](C(C)C)OC(=O)C[C@H](O)[C@H]2CC(C)C)N(C)C(C)=O)cc1 (stereo not given in full) | 15 µM (inactive) | 38.5 µM (inactive) | 12.6 µM (inactive) | 6.82 µM (inactive) | 9.08 µM (inactive) | 3.1 µM (inactive) | 9.25 µM (inactive) | 9.82 µM (inactive) | 10.3 µM (inactive) | 9.95 µM (inactive) | 9.2 µM (inactive) | 10.1 µM (inactive) | 10.6 µM (inactive) | 15.2 µM (inactive) | 16 | 11.7 µM (inactive) | 14.3 µM (inactive) | 18.9 µM (inactive) | 2.78 µM (inactive) | 3.71 µM (inactive) |
| CCOC(=O)CCC(C(=O)OCC)n1nnc2cc(Nc3c(C)[n+]([O-])c4cc(F)c(OCC)cc4[n+]3[O-])ccc21 (stereo not given) | 25.6 µM (inactive) | 48.3 µM (inactive) | 52.6 µM (inactive) | > 100 µM (inactive) | > 100 µM (inactive) | 30.7 µM (inactive) | > 100 µM (inactive) | > 100 µM (inactive) | 67.8 µM (inactive) | > 100 µM (inactive) | > 100 µM (inactive) | 40.9 µM (inactive) | 34.8 µM (inactive) | > 100 µM (inactive) | > 100 | > 100 µM (inactive) | > 100 µM (inactive) | 87.1 µM (inactive) | > 100 µM (inactive) | > 100 µM (inactive) |
| CCC(=O)Oc1ccc2c(c1)c(=O)c1c(NCCCN(C)C)ccc3nnn2c31 | 3.48 µM (inactive) | 0.818 µM (active) | 0.385 µM (active) | 1.99 µM (inactive) | 5.3 µM (inactive) | 1.42 µM (inactive) | 0.188 µM (active) | 0.0348 µM (active) | 3.35 µM (inactive) | 0.201 µM (active) | 0.0914 µM (active) | 2.45 µM (inactive) | 2.06 µM (inactive) | 0.525 µM (active) | 0.4 | 2.31 µM (inactive) | 2.77 µM (inactive) | 0.403 µM (active) | 0.536 µM (active) | 11.2 µM (inactive) |
| CSCCCNC(=O)c1csc(-c2csc(CCNC(=O)CNC(=O)OC(C)(C)C)n2)n1 | > 100 µM (inactive) | > 100 µM (inactive) | > 100 µM (inactive) | > 100 µM (inactive) | > 100 µM (inactive) | > 100 µM (inactive) | > 100 µM (inactive) | > 100 µM (inactive) | 77.6 µM (inactive) | > 100 µM (inactive) | > 100 µM (inactive) | > 100 µM (inactive) | > 100 µM (inactive) | > 100 µM (inactive) | > 100 | > 100 µM (inactive) | > 100 µM (inactive) | > 100 µM (inactive) | 46.6 µM (inactive) | 28.6 µM (inactive) |
| CC1=NN2C=Nc3c(c(-c4ccc(Cl)cc4)cn3-c3ccc(C)cc3)C2N1 (stereo not given) | 17.1 µM (inactive) | 42.8 µM (inactive) | > 100 µM (inactive) | > 100 µM (inactive) | > 100 µM (inactive) | 76.2 µM (inactive) | > 100 µM (inactive) | 56.6 µM (inactive) | > 100 µM (inactive) | 0.288 µM (active) | 76.6 µM (inactive) | 39.3 µM (inactive) | 54.5 µM (inactive) | > 100 µM (inactive) | > 100 | > 100 µM (inactive) | > 100 µM (inactive) | 29.9 µM (inactive) | > 100 µM (inactive) | 61 µM (inactive) |
